Measurements reported in patent US12581252B2, “Substituted pyrrolo[3,4-b]pyridines as PI3K-α inhibitors” (Relay Therapeutics, Inc., priority 2020, dated 2026).

The molecules below were run against H1047R PIK3CA enzyme (Homo sapiens, UniProt P42336, H1047R) (assay: ADP-Glo Biochemical PIK3CA Kinase Assay).
H1047R PIK3CA enzyme, sequence (P42336 whole entry H1047R): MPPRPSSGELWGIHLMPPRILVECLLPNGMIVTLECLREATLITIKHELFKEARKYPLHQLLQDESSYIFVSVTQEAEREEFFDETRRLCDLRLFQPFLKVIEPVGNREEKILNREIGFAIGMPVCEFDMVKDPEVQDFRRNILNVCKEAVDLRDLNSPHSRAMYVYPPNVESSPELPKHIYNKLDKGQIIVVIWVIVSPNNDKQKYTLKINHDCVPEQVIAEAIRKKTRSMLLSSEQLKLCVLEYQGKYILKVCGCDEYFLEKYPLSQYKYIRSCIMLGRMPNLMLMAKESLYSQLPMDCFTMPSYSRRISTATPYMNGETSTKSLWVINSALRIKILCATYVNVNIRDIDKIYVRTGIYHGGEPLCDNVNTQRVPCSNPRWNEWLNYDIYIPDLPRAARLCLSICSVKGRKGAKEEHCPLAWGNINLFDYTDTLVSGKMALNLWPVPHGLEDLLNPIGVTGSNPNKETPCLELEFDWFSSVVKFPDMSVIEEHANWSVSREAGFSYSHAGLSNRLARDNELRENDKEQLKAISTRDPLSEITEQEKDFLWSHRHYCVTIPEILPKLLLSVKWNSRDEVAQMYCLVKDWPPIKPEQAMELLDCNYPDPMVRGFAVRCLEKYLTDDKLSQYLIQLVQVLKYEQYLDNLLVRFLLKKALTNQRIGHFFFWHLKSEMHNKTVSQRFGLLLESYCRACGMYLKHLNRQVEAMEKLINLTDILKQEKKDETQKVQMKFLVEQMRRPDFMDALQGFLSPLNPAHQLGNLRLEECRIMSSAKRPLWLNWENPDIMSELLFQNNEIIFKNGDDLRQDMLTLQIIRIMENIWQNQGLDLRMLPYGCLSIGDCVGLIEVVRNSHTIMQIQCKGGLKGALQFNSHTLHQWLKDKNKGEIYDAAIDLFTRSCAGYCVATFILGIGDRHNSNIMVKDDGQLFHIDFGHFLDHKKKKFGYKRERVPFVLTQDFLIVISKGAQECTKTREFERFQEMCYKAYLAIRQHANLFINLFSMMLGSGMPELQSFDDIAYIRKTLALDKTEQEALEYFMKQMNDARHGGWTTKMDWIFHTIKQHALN
H1047R PIK3CA enzyme, sequence (P27986 whole entry partner): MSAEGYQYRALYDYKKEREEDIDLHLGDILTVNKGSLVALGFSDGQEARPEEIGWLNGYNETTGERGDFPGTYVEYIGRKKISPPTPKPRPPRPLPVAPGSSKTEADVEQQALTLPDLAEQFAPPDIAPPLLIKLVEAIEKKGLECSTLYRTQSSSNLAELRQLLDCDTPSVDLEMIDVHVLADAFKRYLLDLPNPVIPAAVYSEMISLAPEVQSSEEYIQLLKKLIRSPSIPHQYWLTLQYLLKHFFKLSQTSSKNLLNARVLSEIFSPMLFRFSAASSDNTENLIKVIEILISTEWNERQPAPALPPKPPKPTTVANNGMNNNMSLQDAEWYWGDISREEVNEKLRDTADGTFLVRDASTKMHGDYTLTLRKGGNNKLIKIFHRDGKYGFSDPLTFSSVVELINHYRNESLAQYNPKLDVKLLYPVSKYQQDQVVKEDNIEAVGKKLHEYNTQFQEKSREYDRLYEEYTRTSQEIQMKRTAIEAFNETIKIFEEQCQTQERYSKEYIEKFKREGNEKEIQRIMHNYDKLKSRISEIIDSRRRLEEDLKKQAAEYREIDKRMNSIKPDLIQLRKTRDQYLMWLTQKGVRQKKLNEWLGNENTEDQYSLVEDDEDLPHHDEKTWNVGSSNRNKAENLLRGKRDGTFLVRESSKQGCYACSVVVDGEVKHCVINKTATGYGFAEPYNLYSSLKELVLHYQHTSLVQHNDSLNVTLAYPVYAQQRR

| IC50 [nM] | SMILES |
| --- | --- |
| 10000 to 100000 | O=C(Nc1cccc2c1C(CC1CC=CC1)NC2=O)c1cc(F)cc(C(F)(F)F)c1 (stereo not drawn) [Compound I-2322] |
| ≤ 100 | CS(=O)(=O)N1CCC[C@H]1COc1cc(NC(=O)c2cc(F)cc(C(F)(F)F)c2)c2c(c1)C(=O)NC2c1cc(F)ccc1Cl (single isomer, unassigned) [Compound I-1375] |
| ≤ 100 | NC(=O)COc1ncc(-c2cc(NC(=O)c3cc(F)cc(C(F)(F)F)c3)c3c(c2)C(=O)NC3c2cc(F)ccc2Cl)cn1 (stereo not drawn) [Compound I-1416] |
| 10000 to 100000 | O=C1NC(c2cc(F)ccc2Cl)c2c(NC(=O)N3CC(O)(c4scnc4C(F)(F)F)C3)cccc21 (stereo not drawn) [Compound I-2417] |
| 1000 to 10000 | O=C1N[C@@H](c2cc(F)ccc2Cl)c2c(NC(=O)N3C[C@@](O)(C(F)(F)F)c4cc(F)ccc43)ccnc21 (single isomer, unassigned) [Compound I-2700] |
| 100 to 500 | CC(=O)Nc1cc(NC(=O)N2C[C@](O)(C(F)(F)F)c3cc(F)ccc32)c2c(c1)C(=O)N[C@H]2c1cc(F)ccc1Cl (single isomer, unassigned) [Compound I-2574] |
| 10000 to 100000 | O=C1N[C@H](c2cc(F)ccc2Cl)c2c(NC(=O)N3C[C@@](O)(C(F)(F)F)c4ccccc43)cccc21 (single isomer, unassigned) [Compound I-2383] |
| ≤ 100 | O=C(Nc1cc(-c2ccn3cnnc3c2)cc2c1C(c1cc(F)ccc1Cl)NC2=O)c1cc(F)cc(C(F)(F)F)c1 (stereo not drawn) [Compound I-1501] |
| ≤ 100 | Cc1cc2ncnn2cc1-c1cc(NC(=O)c2cc(F)cc(C(F)(F)F)c2)c2c(c1)C(=O)NC2c1cc(F)ccc1Cl (stereo not drawn) [Compound I-1827] |
| ≤ 100 | Nc1nc2cc(-c3cc(NC(=O)c4cc(F)cc(C(F)(F)F)c4)c4c(c3)C(=O)NC4c3cc(F)ccc3Cl)ccn2n1 (stereo not drawn) [Compound I-1370] |
| 1000 to 10000 | O=C(Nc1cc(-c2ccc3ncnn3n2)cc2c1[C@@H](c1cc(F)ccc1Cl)NC2=O)c1cc(F)cc(C(F)(F)F)c1 [Compound I-1649] |
| 500 to 1000 | O=C1NC(c2cc(F)ccc2Cl)c2c(NC(=O)N3CCCC34CCCCC4)cccc21 (stereo not drawn) [Compound I-2430] |
| ≤ 100 | N#Cc1cnc2cnc(-c3cc(NC(=O)c4cc(F)cc(C(F)(F)F)c4)c4c(c3)C(=O)N[C@H]4c3cc(F)ccc3Cl)cn12 [Compound I-1923] |
| 10000 to 100000 | Cn1cc(-c2cc(NC(=O)c3cc(F)cc(C(F)(F)F)c3)c3c(c2)C(=O)N[C@@H]3c2cc(F)ccc2Cl)c(C#N)n1 [Compound I-1737] |
| 1000 to 10000 | O=C1N[C@H](c2cc(F)ccc2Cl)c2c(NC(=O)N3C[C@@H](O)c4cc(F)ccc43)cc(-n3ccnn3)cc21 (single isomer, unassigned) [Compound I-2371] |
| ≤ 100 | C[C@@]1(O)CN(C(=O)Nc2cc(Br)cc3c2C(c2cc(F)ccc2Cl)NC3=O)c2ccccc21 (single isomer, unassigned) [Compound I-1511] |
| 10000 to 100000 | CC#Cc1cc(-c2ccc3ncnn3c2)cc2c1C(c1cc(F)ccc1Cl)NC2=O (stereo not drawn) [Compound I-1988] |
| ≤ 100 | N#Cc1cnc2cc(F)c(-c3cc(NC(=O)c4cc(F)cc(C(F)(F)F)c4)c4c(c3)C(=O)N[C@H]4c3cc(F)ccc3Cl)cn12 [Compound I-1884] |
| 500 to 1000 | O=C1NC[C@@H](c2cc(NC(=O)c3cc(F)cc(C(F)(F)F)c3)c3c(c2)C(=O)N[C@@H]3c2cc(F)ccc2Cl)O1 (single isomer, unassigned) [Compound I-1560] |
| ≤ 100 | O=C(Nc1cc(-c2ccc3ocnc3c2)cc2c1C(c1cc(F)ccc1Cl)NC2=O)c1cc(F)cc(C(F)(F)F)c1 (stereo not drawn) [Compound I-1415] |
| ≤ 100 | N#Cc1nn(C(F)F)cc1-c1cc(NC(=O)c2cc(F)cc(C(F)(F)F)c2)c2c(c1)C(=O)NC2c1cc(F)ccc1Cl (stereo not drawn) [Compound I-1826] |
| 10000 to 100000 | O=C1NC(c2cc(F)ccc2Cl)c2c(NC(=O)C3(c4ccc(Cl)c(Cl)c4)CCCC3)cc(Br)cc21 (stereo not drawn) [Compound I-1636] |
| 10000 to 100000 | NCc1cc(-c2ccc3ncnn3c2)cc2c1C(c1cc(F)ccc1Cl)NC2=O (stereo not drawn) [Compound I-1950] |
| 100 to 500 | C[C@H](C#N)Cn1cc(-c2cc(NC(=O)N3C[C@H](O)c4cc(F)ccc43)c3c(c2)C(=O)N[C@@H]3c2cc(F)ccc2Cl)cn1 (single isomer, unassigned) [Compound I-2500] |
| 1000 to 10000 | O=C1N[C@H](c2cc(F)ccc2Cl)c2c(NC(=O)N3C[C@@](O)(C(F)(F)F)c4cc(F)ccc43)cc(C3COC3)cc21 (single isomer, unassigned) [Compound I-2654] |
| 1000 to 10000 | O=C1NC(c2cc(F)ccc2Cl)c2c(NC(=O)c3ncsc3Br)cccc21 (stereo not drawn) [Compound I-2397] |
| 1000 to 10000 | O=C1N[C@H](c2cc(F)ccc2Cl)c2c(NC(=O)N3C[C@](O)(C(F)(F)F)c4cc(F)ccc43)cc(-n3ccnn3)cc21 (single isomer, unassigned) [Compound I-2548] |
| ≤ 100 | O=C(Nc1cc(CS(=O)(=O)c2cccnc2)cc2c1C(c1cc(F)ccc1Cl)NC2=O)c1cc(F)cc(C(F)(F)F)c1 (stereo not drawn) [Compound I-1536] |

Continued, molecule first:

| SMILES | IC50 [nM] |
| --- | --- |
| COc1cc2c(cn1)N(C(=O)Nc1ccnc3c1C(c1ccccc1C)NC3=O)CC2 (stereo not drawn) [Compound I-324] | 10000 to 100000 |
| O=C1NC(c2cc(F)ccc2Cl)c2c(NC(=O)N3CCCCC3c3ccccc3)cc(Br)cc21 (stereo not drawn) [Compound I-772] | 1000 to 10000 |
| O=C(Nc1cc(N2CCCC(F)(F)C2)nc2c1C(c1cc(F)ccc1Cl)NC2=O)c1cc(F)cc(C(F)(F)F)c1 (stereo not drawn) [Compound I-538] | ≤ 100 |
| O=C(Nc1cc(C2CCCOC2)cc2c1C(c1cc(F)ccc1Cl)NC2=O)c1cc(F)cc(C(F)(F)F)c1 (stereo not drawn) [Compound I-1142] | ≤ 100 |
| N#Cc1cc(F)cc(C(=O)Nc2cc(Br)cc3c2C(c2cc(F)ccc2Cl)NC3=O)c1 (stereo not drawn) [Compound I-910] | 1000 to 10000 |
| Cc1ccccc1C1NC(=O)c2cccc(NC(=O)C34CCC(CC3)CC4)c21 (stereo not drawn) [Compound I-179, N-(1-Oxo-3-(o-tolyl)isoindolin-4-yl)bicyclo[2.2.2]octane-1-carboxamide] | 1000 to 10000 |
| O=C(Nc1cc(N2CC(F)C2)nc2c1C(c1cc(F)ccc1Cl)NC2=O)c1cc(F)cc(C(F)(F)F)c1 (stereo not drawn) [Compound I-488] | ≤ 100 |
| O=C(Nc1cc(C#Cc2cccnc2)cc2c1C(c1cc(F)ccc1Cl)NC2=O)c1cc(F)cc(C(F)(F)F)c1 (stereo not drawn) [Compound I-1225] | ≤ 100 |
| O=C1NC(c2cc(F)ccc2Cl)c2c(NC(=O)N3CCc4ccccc43)cc(Br)cc21 (stereo not drawn) [Compound I-309] | ≤ 100 |
| O=C(Nc1cncc2c1C(c1cc(F)ccc1Cl)NC2=O)c1cc(F)cc(C(F)(F)F)c1 (stereo not drawn) [Compound I-553] | ≤ 100 |
| O=C1NC(c2cc(F)ccc2Cl)c2c(NC(=O)N3CCOCC(F)(F)C3)cc(Br)cc21 (stereo not drawn) [Compound I-698] | 10000 to 100000 |
| O=C(Nc1cc(Cl)nc2c1C(c1cc(F)ccc1Cl)NC2=O)c1cc(F)cc(C(F)(F)F)c1 (stereo not drawn) [Compound I-545] | ≤ 100 |
| Cc1ccccc1C1NC(=O)c2cccc(NC(=O)c3cnc4ccc(Cl)cn34)c21 (stereo not drawn) [Compound I-47] | 10000 to 100000 |
| O=C1NC(c2cc(F)ccc2Cl)c2c(NC(=O)C34CC5CC(CC(F)(C5)C3)C4)cccc21 (stereo not drawn) [Compound I-1133] | 500 to 1000 |
| Cn1cc(-c2cc(NC(=O)c3cc(F)cc(C(F)(F)F)c3)c3c(c2)C(=O)N[C@@H]3c2cc(F)ccc2Cl)ccc1=O (single isomer, unassigned) [Compound I-701] | 500 to 1000 |
| CC(C)(O)c1cc(NC(=O)c2cc(F)cc(C(F)(F)F)c2)c2c(c1)C(=O)NC2c1ccccc1Cl (stereo not drawn) [Compound I-439] | 100 to 500 |
| N#Cc1ccc(Cl)c(C2NC(=O)c3cccc(NC(=O)c4cc(F)cc(C(F)(F)F)c4)c32)c1 (stereo not drawn) [Compound I-485] | 10000 to 100000 |
| O=C1NC(c2cc(F)ccc2Cl)c2c(NC(=O)N3CC(C(F)(F)F)CC(C(F)(F)F)C3)cc(Br)cc21 (racemic) [Compound I-661] | 1000 to 10000 |

| SMILES | IC50 [nM] |
| --- | --- |
| Cn1cc(-c2cc(NC(=O)c3cc(F)cc(C(F)(F)F)c3)c3c(n2)C(=O)N[C@H]3c2cc(F)ccc2Cl)ccc1=O [Compound I-588] | ≤ 100 |
| Cn1ccc2c(C(=O)Nc3cc(Br)cc4c3C(c3cc(F)ccc3Cl)NC4=O)cccc21 (stereo not drawn) [Compound I-670] | 10000 to 100000 |
| CC1(COc2cc(NC(=O)c3cc(F)cc(C(F)(F)F)c3)c3c(c2)C(=O)NC3c2cc(F)ccc2Cl)COC1 (stereo not drawn) [Compound I-748] | ≤ 100 |
| O=C(Nc1cc(-c2ncc[nH]2)cc2c1[C@@H](c1cc(F)ccc1Cl)NC2=O)c1cc(F)cc(C(F)(F)F)c1 [Compound I-918] | 500 to 1000 |
| O=C1Cc2cc(-c3cc(NC(=O)c4cc(F)cc(C(F)(F)F)c4)c4c(c3)C(=O)NC4c3cc(F)ccc3Cl)ccc2N1 (stereo not drawn) [Compound I-1041] | ≤ 100 |
| O=C(Nc1cc(Br)cc2c1C(c1cc(F)ccc1Cl)NC2=O)c1cc(F)cc(C2CCC2)c1 (stereo not drawn) [Compound I-1351] | 1000 to 10000 |
| O=C(Nc1cc(-c2cccnc2)nc2c1C(c1cc(F)ccc1Cl)NC2=O)c1cc(F)cc(Cl)c1 (stereo not drawn) [Compound I-455] | 100 to 500 |
| O=C(Nc1cccc2c1C(c1cc(F)ccc1Cl)NC2=O)c1cc(F)cnc1NC1CCC1 (stereo not drawn) [Compound I-768] | 1000 to 10000 |
| O=C1NC(c2cc(F)ccc2Cl)c2c(NS(=O)(=O)N3CCc4ccccc43)cc(Br)cc21 (stereo not drawn) [Compound I-1287] | 10000 to 100000 |
| O=C(Nc1cc(C#Cc2ccn[nH]2)cc2c1C(c1cc(F)ccc1Cl)NC2=O)c1cc(F)cc(C(F)(F)F)c1 (stereo not drawn) [Compound I-1244] | ≤ 100 |
| N#C[C@H]1C[C@@H](Oc2cc(NC(=O)c3cc(F)cc(C(F)(F)F)c3)c3c(c2)C(=O)NC3c2cc(F)ccc2Cl)C1 (mixture of isomers) [Compound I-1295] | ≤ 100 |
| O=C(Nc1cc(-c2cn[nH]c2)nc2c1C(c1cc(F)ccc1Cl)NC2=O)c1cc(F)cc(Cl)c1 (stereo not drawn) [Compound I-182] | 100 to 500 |
| CC(O)c1cc(NC(=O)c2cc(F)cc(C(F)(F)F)c2)c2c(n1)C(=O)NC2c1cc(F)ccc1Cl (stereo not drawn) [Compound I-280] | 100 to 500 |
| O=C(Nc1cc(-c2cn3cccnc3n2)cc2c1C(c1cc(F)ccc1Cl)NC2=O)c1cc(F)cc(C(F)(F)F)c1 (stereo not drawn) [Compound I-1355] | ≤ 100 |
| Cn1ccc(-c2cc(NC(=O)c3cc(F)cc(C(F)(F)F)c3)c3c(c2)C(=O)NC3c2cc(F)ccc2Cl)cc1=O (stereo not drawn) [Compound I-889] | ≤ 100 |
| O=C(CCc1ccccc1C(F)(F)F)Nc1cc(Br)cc2c1C(c1cc(F)ccc1Cl)NC2=O (stereo not drawn) [Compound I-600] | 1000 to 10000 |
| O=C(Nc1cc(Br)cc2c1C(c1cc(Cl)ccc1Cl)NC2=O)c1cc(F)cc(C(F)(F)F)c1 (stereo not drawn) [Compound I-763] | ≤ 100 |
